# Legend:
# [1] = Stability and reactivity in aqueous solution (1H-NMR, UV-vis)
# Description: The exact concentration of the metal complex stock solutions was calculated on weight-in-volume basis. Complexes were dissolved in water in 1–5 mM concentration.
# The path length was 1 cm.
# ^1H-NMR spectroscopic studies were carried out on a Bruker FT-NMR spectrometer AV NEO 500.10 MHz and a Bruker Avance III HD Ascend 500 Plus instrument. All ^1H-NMR spectra were recorded using a standard Bruker noesygppr1d pulse sequence to suppress water resonance. […] Samples contained 10% (v/v) D2O with a complex concentration of ca. 1 mM. Samples were prepared in pH 1.3 aqueous HCl solution or in pH 7.4 PBS.
# [2] = Conditional stability constant of Ru-MeIm bond and speciation modelling (pH-dependent UV-vis, HypSpec); type: physicochemical
# Description: Calculation was done with HypSpec software based on the pH-dependent UV–vis spectra recorded after 3 days (Figures S27, S28). With the help of the computed constant, it was possible to model the speciation at various concentrations. […] At pH 6.0, a condition more characteristic of solid tumor tissues, the MeIm ligand tends to dissociate to a greater extent and only 44% and 76% of the original complex is found in solution at 0.1 and 1 μM concentrations, respectively.
# The average water ionization constant, pKw, was determined as 13.76 ± 0.01, which is in good agreement with literature data. The initial volume of the samples was 15.0 mL. The complex concentration was 100 or 157 μM at an ionic strength of I = 0.1 M (KCl). Samples were degassed by bubbling purified argon through them for about 10 min prior to the measurements, and the inert gas was also passed over the solutions during the titrations. 0.70-mL batch samples were collected between pH 1 and 11; these samples were kept in dark, and after 2 and 3 days, their pH was remeasured, and the UV–vis spectra were recorded as well. Only small differences were observed between the 2- and 3-day spectra, and always, the 3-day samples were used for further evaluation. The conditional stability constant for 3c was calculated based on the following equilibrium: [RuCym(N,C)(Z)]^(1+n) + MeIm ⇌ [RuCym(N,C) (MeIm)]^+ + Z^n; (Z = Cl^– or H2O; n = −1 or 0). The calculation was done with the HypSpec software. […] The calculated stability constant is a conditional value and applies for I = 0.1 M KCl ionic strength.
# SW480 cancer cells = test: Cellular accumulation (ICP-MS) in SW480 cells; details: 50 μM, 0.5% DMF in MEM, SW480, exposure time 2 h
# Description: (§1) As the coordinated p-cym and leaving groups are present in all synthesized complexes, we focused on the differently substituted 4-phenylthiazoles for estimated changes in lipophilicity.
# Cellular accumulation of the compounds was studied based on a method described previously with modifications. 1.8 × 10^5 SW480 cells per well were seeded in aliquots of 1 mL of complete MEM (see above) into 12-well plates (CytoOne, tissue culture treated, Starlab) and incubated at 37°C for 24 h. Then, cells were exposed for 2 h at 37°C to 50 μM solutions of the test compounds (containing 0.5% DMF) in fresh 0.5 mL of complete MEM upon exchange of the medium. Afterward, cells were washed three times with 1 mL PBS per well, lysed with 0.4 mL sub-boiled HNO3 per well for 1 h at room temperature, and 0.3 mL of each sample was diluted with 7.7 mL Milli-Q water. Adsorption/desorption controls were prepared in the same manner in cell-free wells. Ruthenium content was quantified by ICP-MS using an ICP-quadrupole MS Agilent 7800 instrument (Agilent Technologies, Waldbronn, Germany) as described previously.
# [3] = tested on: G4 forming sequences (h-Telo, bcl2, hTERT, Kit1, Kit2) and dsDNA; test: FRET melting assay, G-quadruplex / B-DNA interaction; type: binding, human; details: 60 mM potassium cacodylate pH 7.4, 2 h incubation
# Description: G4s are DNA secondary motifs that play crucial roles in cancer development. […] The complexes were incubated with different G4 forming sequences: one derived from human telomere-forming (h-Telo) and four corresponding to promoter regions of oncogenes, namely, bcl2, hTERT, Kit1, and Kit2. For comparison, a self-complementary sequence called dsDNA was used to represent B-DNA (Table S2).
# FRET experiments were conducted using an Applied Biosystems QuantStudio 6 PCR cycler in a 96-well format equipped with a FAM (6-carboxyfluorescein) filter. Oligonucleotide stock solutions, labelled with FAM and TAMRA (6-carboxytetramethylrhodamine) probes, were diluted to the desired concentration in a 60-mM potassium cacodylate buffer (pH 7.4). To fold the oligonucleotides into their B-DNA or G4 topologies, the solutions were heated to 95°C for 5 min and then allowed to cool slowly to room temperature overnight. The final concentration of the oligonucleotides was 0.2 μM, with a total volume of 30 μL in each well. Metal complexes were dissolved in DMF to prepare 2 mM stock solutions and further diluted with the buffer, where DMF concentration never exceeded 0.05%. Mixtures of oligonucleotides and metal compounds were left at room temperature for 2 h. Data were collected twice, each time in duplicate, over a temperature range of 25°C–95°C, with a ramp of 1°C every 30 s. FAM emission data were normalized from 0 to 1 to compare different datasets. After data normalization, we extrapolated the T1/2 values, i.e., the temperature at which normalized FAM emission is 0.5. The DNA concentration is expressed in strands.
# Balb/c mice = test: Toxicity experiments in Balb/c mice (MTD); details: mice, i.p.
# Description: Finally, we were interested in the anticancer activity of selected complexes of our panel in an in vivo mouse setting. Before injecting the compounds in tumor-bearing mice, toxicity experiments were performed. […] On the last day of therapy, most animals were sacrificed and tissues as well as tumors collected. Only four mice (per group) were kept to get information on the impact of the drugs on the overall survival.
# [4] = tested on: HCT116 multicellular tumor spheroids (3D); test: Resazurin assay, HCT116 3D multicellular tumor spheroids; details: read-out: IC50 3D; HCT116 3D spheroids, resazurin assay, 96 h exposure
# Description: Both models were investigated by the fluorimetric resazurin assay after 96-h exposure.
# HCT116 colorectal carcinoma cells (RRID:CVCL_0291 from ATCC) were cultivated in McCoy's 5A medium, supplemented with 10% heat-inactivated fetal bovine serum and 4 mM L-glutamine.
# For 2D experiments, HCT116 cells were harvested from culture flasks by trypsinization, seeded in 100-μL aliquots into 96-well microculture plates (CytoOne, TC-treated, from Starlab) in densities of 2 × 10^3 cells per well, and incubated for 24 h prior to exposure to the test compounds. […] Stock solutions of test compounds were prepared in DMF, which were then diluted in McCoy's 5A-supplemented medium (not to exceed a final content of 0.5% v/v of organic solvent in the test plates), and serial dilutions were added in aliquots of 100 μL per well. […] After incubation for 4 h, fluorescence was measured with a microplate reader (Bio-Tek, SynergyHT) at a wavelength of 530 nm, additionally using a reference wavelength of 620 nm.
# Solubility in 1% DMF/PBS = test: Solubility in 1% DMF/PBS
# From the text: Solubility is an important factor for the application of metallodrugs. DMF was used as solubilizer to allow comparison to the respective chlorido complexes where the usage of DMSO would lead to stable DMSO adducts.
# as §1
smiles,measurement,setting,value
"Cc1ccc(C(C)C)cc1.Cn1cc[n+]([Ru-]2[c]3cc(S(C)(=O)=O)ccc3-c3csc[n+]32)c1.O=[N+]([O-])[O-] [Compound 3c, [((3-κN)-1-Methylimidazole)(4-(4-(methylsulfonyl)phenyl)thiazolato-κN,κC2′)(η^6-p-cymene)ruthenium(II)] Nitrate]",Sensitivity to chloride: replacement of coordinated MeIm,"[1]; 3 M KCl, pH 7.4, UV-vis",could not replace coordinated MeIm
same,Decomposition at pH 7.4,"[1]; PBS pH 7.4, 1 mM complex, 25°C, within 6 days, 1H-NMR",no decomposition
same,Behaviour in acidic solution,"[1]; pH = 1.0 or 1.3 (HCl), followed in time up to 6 days, 1H-NMR/UV-vis",decomposition
same,Spectral change at pH 10.0,"[1]; pH = 10.0 (NaOH), within 2 days, UV-vis",no spectral change
same,Conditional stability constant logK′ of Ru(p-cym)-MeIm bond,"[2]; I = 0.1 M KCl, 25°C, UV-vis spectra after 3 days, HypSpec",8.31 ± 0.03
same,Original complex found in solution,"[2]; pH 6.0, 0.1 μM complex, modelled from logK′",44%
same,Original complex found in solution,"[2]; pH 6.0, 1 μM complex, modelled from logK′",76%
same,Intact (nondissociated) complex fraction,"[2]; pH 7.4, 0.1 μM complex, modelled from logK′",78%
same,Stability of complex by modelled speciation,"[2]; pH 7.4, 1 μM and 10 μM complex concentrations",stable
same,"Cellular accumulation, fg Ru/cell",SW480 cancer cells,4.6 ± 0.6 fg Ru/cell
same,Stabilization of oligonucleotides (G4s or B-DNA),[3],No stabilization
same,Tolerated dose,Balb/c mice,at least 50 mg/kg
same,IC50,[4],226 ± 36 µM
same,Solubility,Solubility in 1% DMF/PBS,24.6 mM

# Source: publication PMC12463534, “Exploring the Anticancer Properties of 4-Phenylthiazole-Based Ru(II) and Os(II) Metallacycles Featuring 1-Methylimidazole as N-Donor Functionality” (Bioinorganic Chemistry and Applications, 2025)
